# Counter-ions that a name gives are not always drawn.
row,melting point,SMILES
1,215 °C,"CCN(CC)CCn1c(=O)c2cc(Br)ccc2n2c(N3CCCC3)nnc12 (as salt: HCl) [Compound 69, 7-Bromo-4-(2diethylamino-ethyl)-1-pyrrolidin-1-yl-4H-[1,2,4)triazolo[4,3-a]quinazolin-5-one]"
2,194 °C,"O=c1c2cc(Br)ccc2n2c(N3CCCC3)nnc2n1Cc1ccc2c(c1)OCO2 (hydrate or solvate) [Compound 53, 4-Benzo[1,3]dioxol-5-ylmethyl-7-bromo-1-pyrrolidin-1-yl-4H-[1,2,4]triazolo[4,3-a]quinazolin-5-one]"
3,234 °C,"O=c1nc2n(Cc3ccc4c(c3)OCO4)nc(N3CCCC3)n2c2ccc(Br)cc12 (hydrate or solvate) [Compound 149, 3-(benzo[1,3]dioxol-5-ylmethyl)-7-bromo-1-(pyrrolidin-1-yl)-3H-[1,2,4]triazolo[4,3-a]quinazolin-5-one]"
4,144 °C,"O=c1c2ccccc2n2c(N3CCCCCC3)nnc2n1CC=Cc1ccccc1 [Compound 6, 1-Azepan-1-yl-4-(3-phenyl-allyl)-4H-[1,2,4]triazolo[4,3-a]quinazolin-5-one]"
5,160 to 162 °C,"O=c1c2cc(Cl)ccc2n2c(N3CCCCCC3)nnc2n1Cc1ccccc1Cl [Compound 9, 1-(azepan-1-yl)-7-chloro-4-(2-chlorobenzyl)-4H-[1,2,4]triazolo[4,3-a]quinazolin-5-one]"
6,157 °C,"O=c1c2cc(Cl)ccc2n2c(N3CCCCCC3)nnc2n1Cc1cccc(Cl)c1 [Compound 10, 1-(azepan-1-yl)-7-chloro-4-(3-chlorobenzyl)-4H-[1,2,4]triazolo[4,3-a]quinazolin-5-one]"
7,138 °C,"O=c1c2cc(Cl)ccc2n2c(N3CCCCCC3)nnc2n1Cc1ccc(C(F)(F)F)cc1 [Compound 14, 1-(azepan-1-yl)-7chloro-4-(4-(trifluoromethyl)benzyl)-4H-[1,2,4]triazolo[4,3-a]quinazolin-5-one]"
8,98 to 100 °C,"COc1ccccc1Cn1c(=O)c2cc(Cl)ccc2n2c(N3CCCCCC3)nnc12 [Compound 16, 1-(azepan-1-yl)-7-chloro-4-(2-methoxybenzyl)-4H-[1,2,4]triazolo[4,3-a]quinazolin-5-one]"
9,138 °C,"COc1cccc(Cn2c(=O)c3cc(Cl)ccc3n3c(N4CCCCCC4)nnc23)c1 [Compound 17, 1-(azepan-1-yl)-7-chloro-4-(3-methoxybenzyl)-4H-[1,2,4]triazolo[4,3-a]quinazolin-5-one]"
10,138 °C,"COc1ccc(Cn2c(=O)c3cc(Cl)ccc3n3c(N4CCCCCC4)nnc23)cc1 [Compound 18, 1-(azepan-1-yl)-7-chloro-4-(4-methoxybenzyl)-4H-[1,2,4]triazolo[4,3-a]quinazolin-5-one]"
11,152 °C,"O=c1c2cc(Cl)ccc2n2c(N3CCCCCC3)nnc2n1Cc1ccccn1 [Compound 21, 1-(azepan-1-yl)-7-chloro-4-(2-pyridylmethyl)-4H-[1,2,4]triazolo[4,3-a]quinazolin-5-one]"
12,137 °C,"O=c1c2cc(Cl)ccc2n2c(N3CCCCCC3)nnc2n1Cc1ccncc1 [Compound 23, 1-(azepan-1-yl)-7-chloro-4-(4-pyridylmethyl)-4H-[1,2,4]triazolo[4,3-a]quinazolin-5-one]"
13,136 °C,"COc1ccc(CCn2c(=O)c3cc(Cl)ccc3n3c(N4CCCCCC4)nnc23)cc1 [Compound 25, 1-(azepan-1-yl)-7-chloro-4-[2-(4-methoxyphenyl)ethyl]-4H-[1,2,4]triazolo[4,3-a]quinazolin-5-one]"
14,105 to 107 °C,"O=C(Cn1c(=O)c2cc(Cl)ccc2n2c(N3CCCCCC3)nnc12)c1ccccc1 [Compound 27, 1-Azepan-1-yl-7-chloro-4-(2-oxo-2-phenyl-ethyl)-4H-[1,2,4]triazolo[4,3-a]quinazolin-5-one]"
15,190 °C,"O=C(Cn1c(=O)c2cc(Cl)ccc2n2c(N3CCCCCC3)nnc12)c1ccc(Cl)cc1 [Compound 29, 1-(azepan-1-yl)-7-chloro-4[2-(4-chlorophenyl)-2-oxoethyl]-4H-[1,2,4]triazolo[4,3-a]quinazolin-5-one]"
16,140 °C,"COC(=O)c1cc(C(=O)Cn2c(=O)c3cc(Cl)ccc3n3c(N4CCCCCC4)nnc23)ccc1OC [Compound 30, 5-[(1-(azepan-1-yl)-7-chloro-5-oxo-5H-[1,2,4]triazolo[4,3-a]-quinazolin-4-yl)acetyl]-2-methoxybenzoic acid methyl ester]"
17,176 °C,"O=c1c2cc(Cl)ccc2n2c(N3CCCC3)nnc2n1Cc1cccnc1 [Compound 31, 7-Chloro-4-pyridin-3-ylmethyl-1-pyrrolidin-1-yl-4H-[1,2,4]triazolo[4,3-a]quinazolin-5-one]"
18,158 °C,"O=c1c2cc(Br)ccc2n2c(N3CCCCCC3)nnc2n1Cc1ccc(F)cc1 [Compound 33, 1-Azepan-1-yl-7-bromo-4-(4-fluoro-benzyl)-4H-[1,2,4]triazolo[4,3-a]quinazolin-5-one]"
19,180 °C,"O=c1c2cc(Br)ccc2n2c(N3CCCCCC3)nnc2n1Cc1cccnc1 [Compound 36, 1-(azepan-1-yl)-7-bromo-4-(3-pyridinylmethyl)-4H-[1,2,4]triazolo[4,3-a]quinazolin-5-one]"

row,melting point,SMILES
1,176 °C,"O=c1c2cc(Br)ccc2n2c(N3CCCCCC3)nnc2n1CC=Cc1ccc(Cl)cc1 [Compound 38, 1-Azepan-1-yl-7-bromo-4-[3-(4-chloro-phenyl)-allyl]-4H-[1,2,4]triazolo[4,3-a]quinazolin-5-one]"
2,129 °C,"COc1ccc(C=CCn2c(=O)c3cc(Br)ccc3n3c(N4CCCCCC4)nnc23)cc1 [Compound 39, 1-Azepan-1-yl-7-bromo-4-[3-(4-methoxy-phenyl)-allyl]-4H-[1,2,4]triazolo[4,3-a]quinazolin-5-one]"
3,206 °C,"N#Cc1cccc(Cn2c(=O)c3cc(Br)ccc3n3c(N4CCCC4)nnc23)c1 [Compound 45, 3-(7-Bromo-5-oxo-1-pyrrolidin-1-yl-5H-[1,2,4]triazolo[4,3-a]quinazolin-4-ylmethyl)benzonitrile]"
4,141 to 143 °C,"COc1cc(Cn2c(=O)c3cc(Br)ccc3n3c(N4CCCC4)nnc23)cc(OC)c1OC [Compound 55, 7-Bromo-1-pyrrolidin-1-yl-4-(3,4,5-trimethoxy-benzyl)-4H-[1,2,4]triazolo[4,3-a]quinazolin-5-one]"
5,260 °C,"O=C(O)Cc1ccc(Cn2c(=O)c3cc(Br)ccc3n3c(N4CCCC4)nnc23)cc1 [Compound 56, [4-(7-Bromo-5-oxo-1-pyrrolidin-1-yl-5H-[1,2,4]triazolo[4,3-a]quinazolin-4-ylmethyl)-phenyl]-acetic acid]"
6,110 °C,"O=c1c2cc(Br)ccc2n2c(N3CCCC3)nnc2n1CC=Cc1ccccc1 [Compound 58, 7-Bromo-4-(3-phenyl-allyl)-1-pyrrolidin-1-yl-4H-[1,2,4]triazolo[4,3-a]quinazolin-5-one]"
7,290 °C (dec.),"O=c1c2cc(Br)ccc2n2c(N3CCCC3)nnc2n1Cc1c[nH]cn1 [Compound 63, 7-Bromo-4-(1H-imidazol-4-ylmethyl)-1-pyrrolidin-1-yl-4H-[1,2,4]triazolo[4,3-a]quinazolin-5-one]"
8,221 °C,"Cc1noc(C)c1Cn1c(=O)c2cc(Br)ccc2n2c(N3CCCC3)nnc12 [Compound 64, 7-Bromo-4-(3,5-dimethyl-isoxazol-4-ylmethyl)-1-pyrrolidin-1-yl-4H-[1,2,4]triazolo[4,3-a]quinazolin-5-one]"
9,155 °C,"O=c1c2cc(Br)ccc2n2c(N3CCCC3)nnc2n1CC1CCCC1 [Compound 65, 7-Bromo-4-cyclopentylmethyl-1-pyrrolidin-1-yl-4H-[1,2,4]triazolo[4,3-a]quinazolin-5-one]"
10,135 °C,"CCCCn1c(=O)c2cc(Br)ccc2n2c(N3CCCC3)nnc12 [Compound 66, 7-Bromo-4-butyl-1-pyrrolidin-1-yl-4H-[1,2,4]triazolo[4,3-a]quinazolin-5-one]"
11,202 °C,"O=c1c2cc(Br)ccc2n2c(N3CCCC3)nnc2n1CC(F)(F)F [Compound 67, 7-Bromo-1-pyrrolidin-1-yl-4-(2,2,2-trifluoro-ethyl)-4H-[1,2,4]triazolo[4,3-a]quinazolin-5-one]"
12,240 °C,"O=c1c2cc(Br)ccc2n2c(N3CCCC3)nnc2n1CCO [Compound 68, 7-Bromo-4-(2-hydroxy-ethyl)-1-pyrrolidin-1-yl-4H-[1,2,4]triazolo[4,3-a]quinazolin-5-one]"
13,204 °C,"C#CCn1c(=O)c2cc(Br)ccc2n2c(N3CCCC3)nnc12 [Compound 70, 7-Bromo-4-prop-2-ynyl-1-pyrrolidin-1-yl-4H-[1,2,4]triazolo[4,3-a]quinazolin-5-one]"
14,171 °C,"O=c1c2cc(Br)ccc2n2c(N3CCCC3)nnc2n1CCOc1ccccc1 [Compound 71, 7-Bromo-4-(2-phenoxy-ethyl)-1-pyrrolidin-1-yl-4H-[1,2,4]triazolo[4,3-a]quinazolin-5-one]"
15,122 °C,"O=c1c2cc(Br)ccc2n2c(N3CCCC3)nnc2n1CCSc1ccccc1 [Compound 72, 7-Bromo-4-(2-phenylsulfenyl-ethyl)-1-pyrrolidin-1-yl-4H-[1,2,4]triazolo[4,3-a]quinazolin-5-one]"
16,184 °C,"COC(=O)C(c1ccccc1)n1c(=O)c2cc(Br)ccc2n2c(N3CCCC3)nnc12 (centres unmarked) [Compound 73, (7-Bromo-5-oxo-1-pyrrolidin-1-yl-5H-[1,2,4]triazolo[4,3-a]quinazolin-4-yl)-phenyl-acetic acid methyl ester]"
17,200 °C,"N#Cc1ccc(Cn2c(=O)c3cc(Br)ccc3n3c(N4CCCCC4)nnc23)cc1 [Compound 74, 4-(7-Bromo-5-oxo-1-piperidin-1-yl-5H-[1,2,4]triazolo[4,3-a]quinazolin-4-ylmethyl)-benzonitrile]"
18,177 °C,"O=c1c2cc(Br)ccc2n2c(N3CCSCC3)nnc2n1CC=Cc1cccnc1 [Compound 77, 7-Bromo-4(3-pyridin-3-yl-allyl)-1-thiomorpholin-4-yl-4H-[1,2,4]triazolo[4,3-a]quinazolin-5-one]"
19,246 °C,"CN(C)c1nnc2n(Cc3ccc(CC(=O)O)cc3)c(=O)c3cc(Br)ccc3n12 [Compound 82, [4-(7-Bromo-1-dimethylamino-5-oxo-5H-[1,2,4]triazolo[4,3-a]quinazolin-4-ylmethyl)-phenyl]-acetic acid]"
